# Measurements taken from patent US20130089641A1.
# Columns and labels:
# [1] = background, researches; cited from earlier work
# [2] = first experiment: in vitro digestion and dialysis of soymilk with ascorbic acid or calcium ascorbate, releasable iron; type: in vitro ADME
# From the text: For improving that, a first experiment in the present invention is done, that is, to respectively add the ascorbic acid and the calcium ascorbate into the soymilk and determine the concentration of the releasable iron thereof. Please refer to following Table (1), which is a statistical table of the releasable iron concentration in the soymilk.
# [3] = NaVC consumption on ultra heat treat of the formulated soymilk powder; type: physicochemical
# From the text: As shown in Table (26), the formulated soymilk powder consists of NaVC (sodium vitamin C), lactic acid bacteria, saccharomycete, and maltodextrin, in which the lactic acid bacteria is NTU 101 lactic acid bacteria powder, the saccharomycete is yeast powder with vitamin B complex. Moreover, it must note that, when manufacturing the formulated soymilk powder, it must pre-add 25% NaVC in the formulated soymilk powder because there has 25% NaVC consumption when processing ultra heat treat of the formulated soymilk powder.
# [4] = sixth experiment: releasable iron in soymilk with 30 ppm ferrous gluconate and sodium isoascorbate additive; type: in vitro ADME; details: soymilk with 30 ppm ferrous gluconate; sodium isoascorbate additive
# From the text: However, everyone knows that vitamin C includes a stereoisomer called isoascorbic acid, and the physical and chemical properties of the isoascorbic acid are similar to the vitamin C.
# [5] = soymilk with 20 ppm iron as ferrous sulfate
# From the text: (§1) In which, “in vitro digestion and dialysis” is used in the experiments for determining the releasable iron in human body after the foods are digested.
# Next, in the second experiment, it respectively adds different additive dosage of vitamin C, sodium vitamin C, potassium vitamin C, and calcium vitamin C into the soymilk with 20 ppm ferrous sulfate for testing the effect of encouraging the release of iron ions.
# [6] = second experiment: releasable iron in soymilk with iron salts added by concentration gradients
# From the text: as §1
# [7] = aqueous solution of ferrous sulfate with 100 ppm iron ions
# From the text: as §1
# Firstly, iron(II) sulfate heptahydrate is used as a standard in the experiment, and the in vitro digestion and dialysis of the iron(II) sulfate heptahydrate is done.
compound,measurement,setting,value
heme iron,average absorption rate,[1],25%
"O=C1O[C@H]([C@@H](O)CO)C(O)=C1O [VC, ascorbic acid]",iron release rate,[2]; 75 mg/100 mL,51.75%
same,relative release rate,[2]; 75 mg/100 mL,102.7%
same,releasable iron,[2]; 75 mg/100 mL,2.07 ppm
same,iron release rate,[2]; 175 mg/100 mL,78.75%
same,relative release rate,[2]; 175 mg/100 mL,156.28%
same,releasable iron,[2]; 175 mg/100 mL,3.15 ppm
"O=C1O[C@H]([C@@H](O)CO)C([O-])=C1O.[Na+] [NaVC, sodium ascorbate]",NaVC consumption when processing ultra heat treat,[3],25%
O=C1O[C@H]([C@H](O)CO)C(O)=C1O [isoascorbic acid ions],release promoting rate for iron compared with ascorbic acid ions,[4],almost the same
"O.O.O.O.O.O.O.O=S(=O)([O-])[O-].[Fe+2] [ferrous sulfate, iron(II) sulfate heptahydrate]",releasable iron concentration before adding the ascorbic acid iron,[5],1.90 ppm
same,the most effective additive dosage for ascorbic acid iron,[5],100 mg/100 ml
same,release promoting rate of iron,[5]; after/before adding the ascorbic acid iron,389%
same,releasable iron concentration after adding the ascorbic acid iron,[5]; at the most effective additive dosage 100,7.54 ppm
same,concentration of releasable iron,[6]; additive dosage of iron 10 ppm,1.56 ppm
same,concentration of releasable iron,[6]; additive dosage of iron 20 ppm,1.76 ppm
same,concentration of releasable iron,[6]; additive dosage of iron 30 ppm,2.47 ppm
same,concentration of releasable iron,[6]; additive dosage of iron 40 ppm,2.62 ppm
same,concentration of releasable iron,[6]; additive dosage of iron 50 ppm,2.75 ppm
same,concentration of releasable iron,[6]; additive dosage of iron 60 ppm,3.27 ppm
same,concentration of releasable iron,[6]; additive dosage of iron 70 ppm,3.72 ppm
same,initially inhibiting concentration,[6]; point where releasable iron starts to rise with additive dosage,20 ppm
same,iron ions naturally inhibited,[7],49.61%
same,iron ions released after processing by gastric and intestinal fluid,[7],50.39%
